# Experimental data: patent US9808470B2, “Estrogenic components for use in the treatment of neurological disorders” (UNIVERSITE DE LIEGE, priority 2012, dated 2017)
# Tests used:
# Type in all cases: in vivo
# [1] = tested on: glial fibrillary acidic protein (GFAP); assay: Ex.8 neuroprotective HIE rat model: blood serum GFAP ELISA
# Protocol: Newborn rat pups were assigned to one of the following 14 groups from postnatal day 4 (FIG. 23(A)): Sham group (n=12), Vehicle group (n=17), 5 mg/kg/day E4 (n=13), 10 mg/kg/day E4 (n=10), 5 mg/kg/day E4+1.6 mg/kg/day PROG (n=11), 10 mg/kg/day E4+1.6 mg/kg/day PROG (n=11), 5 mg/kg/day E4+16 mg/kg/day PROG (n=11), 10 mg/kg/day E4+16 mg/kg/day PROG (n=11), 5 mg/kg/day E4+136 ng//kg/day E2 (n=11), 10 mg/kg/day E4+136 ng/kg/day E2 (n=11), 5 mg/kg/day E4+1.6 mg/kg/day PROG+136 ng/kg/day (n=13) E2, 10 mg/kg/day E4+1.6 mg/kg/day PROG+136 ng/kg/day E2 (n=16), 5 mg/kg/day E4+16 mg/kg/day PROG+136 ng/kg/day E2 (n=11), 10 mg/kg/day E4+16 mg/kg/day PROG+136 ng/kg/day groups (n=13). Intraperitoneal injections of the pups from study groups were performed from postnatal day 4 to postnatal day 7 inclusively. At day 7, 30 minutes after last injection, animals were anesthetized with isoflurane (induction, 3.0%; maintenance, 1.5%), and the rat pups from vehicle and all the other groups, except the sham group, passed through surgery encompassing left common carotid artery double ligation and cut. After the procedure, the pups were returned to their dams and were allowed to recover for 1 hour. The pups were then placed in the humidified hypoxic in vivo cabinet (CoyLab, Grass Lake, Mich., USA). […]
# [2] = tested on: intact cells in hippocampus and cortex; assay: Ex.2 neonatal HIE rat model, pre-treatment: hematoxylin-eosin staining and intact cell counting
# Protocol: Paraformaldehyde-fixed paraffin embedded samples of the removed brains were coronally sectioned at the same level of the hippocampus region in accordance to the Paxinos rat brain atlas (Paxinos and Watson 2007. In: The rat brain in stereotaxic coordinates, 6th edition). Thickness of sections was 5 μm. Hematoxylin-eosin staining was performed. Briefly, sections were deparaffinized in xylene and rehydrated in graded ethanol concentrations before staining. Slides were stained with hematoxylin, rinsed for a few seconds in water, then placed in 1% eosin and washed, dehydrated, and coverslipped.
# Intact cell counting was performed on hematoxylin-eosin-stained sections of the rat pups brains at magnification 400× in 3 fields of the respective brain area. Countings were performed in cortex and hippocampus (regions: dentate gyrus (DG), subgranular zone (SGZ), cornu ammonis (CA1, CA2/CA3)). The sections were analyzed with the aid of a microscope (Olympus BX51, Olympus, Tokyo, Japan), an image scanner (DotSlide Digital Virtual Microscopy, Olympus, Germany) and ImageJ software (NIH, US).
# Intact cells are uninjured. Injured cells are characterized by a pale eosinophilic staining along with non-uniform nuclear densities-shrunken, condensed, or pale and enlarged.
# After delivery, newborn rat pups were assigned to one of the following 4 groups: Sham group, Vehicle group, E4 5 mg/kg/per day group and E4 50 mg/kg/per day group. From day 4 to day 7 inclusive, rat pups were injected intraperitoneally either vehicle (Vehicle group) or E4 (5 mg/kg or 50 mg/kg in accordance to the group assignment) or not injected at all (Sham group). At day 7, 30 minutes after last injection, animals from Vehicle and E4 (5 mg/kg or 50 mg/kg) groups passed through surgery encompassing left common carotid artery double ligation and cut, followed by hypoxia produced by the inhalation of 11%-8% of oxygen balanced by nitrogen at decreased concentration for 20 minutes, followed by inhalation of 8% oxygen and 92% nitrogen at constant concentration for 35 minutes. The Sham group went through similar procedures without left common carotid artery ligation and hypoxia. All the manipulations were performed at 37° C. Rat pups recovered with their dams until being sacrificed at postnatal day 14.
# [3] = tested on: Microtubule-associated protein 2 (MAP2); assay: Ex.8 neuroprotective HIE rat model: MAP2 staining; details: 10 mg/kg/day E4
# Protocol: Newborn rat pups were assigned to one of the following 14 groups from postnatal day 4 (FIG. 23(A)): Sham group (n=12), Vehicle group (n=17), 5 mg/kg/day E4 (n=13), 10 mg/kg/day E4 (n=10), 5 mg/kg/day E4+1.6 mg/kg/day PROG (n=11), 10 mg/kg/day E4+1.6 mg/kg/day PROG (n=11), 5 mg/kg/day E4+16 mg/kg/day PROG (n=11), 10 mg/kg/day E4+16 mg/kg/day PROG (n=11), 5 mg/kg/day E4+136 ng//kg/day E2 (n=11), 10 mg/kg/day E4+136 ng/kg/day E2 (n=11), 5 mg/kg/day E4+1.6 mg/kg/day PROG+136 ng/kg/day (n=13) E2, 10 mg/kg/day E4+1.6 mg/kg/day PROG+136 ng/kg/day E2 (n=16), 5 mg/kg/day E4+16 mg/kg/day PROG+136 ng/kg/day E2 (n=11), 10 mg/kg/day E4+16 mg/kg/day PROG+136 ng/kg/day groups (n=13). Intraperitoneal injections of the pups from study groups were performed from postnatal day 4 to postnatal day 7 inclusively. […]
# The brain sections were processed for immunohistochemical detection of neuronal cytoskeletal disruption. […] Samples were analyzed with the aid of an image scanner (Nanozoomer Virtual Microscopy, Hamamatsu, Tokyo, Japan) and the ImageJ software (NIH, US). The positive areas in the ipsilateral and contralateral hemispheres were measured. The ratio of the MAP2 positive areas was calculated as the MAP2 positive area of the ipsilateral hemisphere divided by the MAP2 positive area of the contralateral hemisphere. […]
smiles,measurement,setting,value
"C[C@]12CC[C@@H]3c4ccc(O)cc4CC[C@H]3[C@@H]1[C@@H](O)[C@@H](O)[C@@H]2O [E4, 1,3,5(10)-estratrien-3,15α,16α,17β-tetrol]",concentration of GFAP in blood serum,"[1]; 5 mg/kg/day, PND14",6220.49 ± 1763.17 pg/mL
same,concentration of GFAP in blood serum,"[1]; 10 mg/kg/day E4, PND14",12413.45 ± 2243.05 pg·mL
same,number of intact cells per visual field,"[2]; E4 5 mg/kg ip day 4-7 before HI, DG, vs Vehicle",significantly higher
same,number of intact cells per visual field,"[2]; E4 5 mg/kg ip day 4-7 before HI, SGZ, vs Sham and Vehicle",significantly higher
same,number of intact cells per visual field,"[2]; E4 50 mg/kg ip day 4-7 before HI, CA2/CA3, vs Vehicle and E4 5 mg/kg",significantly higher number of intact cells
same,number of intact cells per visual field,"[2]; E4 50 mg/kg ip day 4-7 before HI, cortex, vs Vehicle",significantly higher number of intact cells
same,number of intact cells per visual field,"[2]; E4 5 and 50 mg/kg ip day 4-7 before HI, CA1, among study groups",non-significant difference
same,Hematoxylin-Eosin staining of hippocampus region,"[2]; E4 5 and 50 mg/kg ip day 4-7 before HI, day 14",neuroprotective effect
same,ratio of MAP2-positive area (ipsilateral/contralateral),[3],0.97±0.01
